Patent US8975401B2, “Quinazoline based EGFR inhibitors containing a zinc binding moiety” (Curis, Inc., priority 2006, dated 2015)
Where two headings read alike, the source gives them in different places.

What was measured:
HDAC = HDAC fluorimetric enzyme assay (Biomol AK-500, HeLa nuclear extract); type: biochemical
Description: HDAC inhibitors were screened using an HDAC fluorimetric assay kit (AK-500, Biomol, Plymouth Meeting, Pa.).
Each assay was setup as follows: Defrosted all kit components and kept on ice until use. […] Prepared dilutions of Trichostatin A (TSA, positive control) and tested compounds in assay buffer (5× of final concentration). Diluted Fluor de Lys™ Substrate in assay buffer to 100 uM (50 fold=2× final). Diluted Fluor de Lys™ developer concentrate 20-fold (e.g. 50 μl plus 950 μl Assay Buffer) in cold assay buffer. Second, diluted the 0.2 mM Trichostatin A 100-fold in the 1× Developer (e.g. 10 μl in 1 ml; final Trichostatin A concentration in the 1× Developer=2 μM; final concentration after addition to HDAC/Substrate reaction=1 μM). Added Assay buffer, diluted trichostatin A or test inhibitor to appropriate wells of the microtiter plate. Added diluted HeLa extract or other HDAC sample to all wells except for negative controls.

[1] = mouse, in vivo
Description: (§3) Samples were compared to standards made in plasma. These standards were prepared by serial dilution. An internal standard was added into the plasma with standard.
(§4) Tissues were homogenized in 0.8 ml water.

A549 NSCLC Xenograft = test: A549 NSCLC xenograft model; type: in vivo, mice; settings: FIG. 11A, 11B
Description: (§1) A representative protocol for the in vivo experiment is as followed:
(§2) 1-10×10^6 human cancer cells were implanted subcutaneously to the athymic (nu/nu) mice. When the tumors reached about 100 mm^3 in volume, the mice were treated with the compound by tail vein infusion. Routinely 5 groups (8-12 mice per group) are needed for a typical efficacy study, including one negative control, one positive control, and three testing groups for 3 dose levels of the same compound. Usually a 7-7-5 (on-off-on) regimen was used for one typical study. The tumor size was measured with an electronic caliper and body weight measured with a scale twice weekly. The tumors were removed from euthanized mice at the end of the study. One half of each tumor was frozen in dry ice and stored at −80° C. for PK or Western blot analysis. The other half was fixed with formalin. The fixed tissues were processed, embedded in paraffin and sectioned for immunohistochemistry staining

[2] = target: T1, human EGFR (His672-Ala1210) (Homo sapiens, UniProt P00533); test: HTScan EGF Receptor Kinase Assay; type: biochemical; settings: for activity in EFGR enzyme assay compared with erlotinib: FIG. 1
T1 construct: human EGFR (His672-Ala1210); GST (N); purchased Cell Signaling Technologies; host or cells: baculovirus expression system
T1 sequence (P00533 672-1210): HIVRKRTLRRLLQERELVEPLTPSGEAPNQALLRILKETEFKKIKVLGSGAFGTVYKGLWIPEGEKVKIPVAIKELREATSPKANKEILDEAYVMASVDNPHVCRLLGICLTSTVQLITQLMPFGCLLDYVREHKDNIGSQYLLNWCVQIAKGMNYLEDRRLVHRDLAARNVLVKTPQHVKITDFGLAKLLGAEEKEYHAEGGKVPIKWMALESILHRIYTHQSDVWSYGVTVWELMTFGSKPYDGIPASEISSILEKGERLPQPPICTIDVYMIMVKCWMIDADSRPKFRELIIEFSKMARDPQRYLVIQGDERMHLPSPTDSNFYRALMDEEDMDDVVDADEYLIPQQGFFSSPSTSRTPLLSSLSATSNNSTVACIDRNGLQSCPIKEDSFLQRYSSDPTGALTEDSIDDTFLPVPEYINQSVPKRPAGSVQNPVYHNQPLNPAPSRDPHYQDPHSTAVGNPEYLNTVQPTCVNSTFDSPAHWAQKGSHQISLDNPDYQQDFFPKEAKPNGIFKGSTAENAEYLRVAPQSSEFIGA
Description: The ability of compounds to inhibit receptor kinase (EGFR) activity was assayed using HTSCAN™ EGF Receptor Kinase Assay Kits (Cell Signaling Technologies, Danvers, Mass.). […] The protein was purified by one-step affinity chromatography using glutathione-agarose.
Immediately transfer enzyme from −80° C. to ice. Allowed enzyme to thaw on ice. […] Returned immediately to ice. […] Incubated reaction plate at room temperature for 30 minutes. […] Added 100 μl/well primary antibody. Incubated at room temperature for 60 minutes. […] Added 100 μl/well diluted antibody. Incubated at room temperature for 30 minutes. […] Incubated at room temperature for 5 minutes.

VEGFR = VEGFR (Homo sapiens, UniProt P35968); test: VEGFR assay (Table B); type: biochemical
Chain of VEGFR (P35968 20-1356): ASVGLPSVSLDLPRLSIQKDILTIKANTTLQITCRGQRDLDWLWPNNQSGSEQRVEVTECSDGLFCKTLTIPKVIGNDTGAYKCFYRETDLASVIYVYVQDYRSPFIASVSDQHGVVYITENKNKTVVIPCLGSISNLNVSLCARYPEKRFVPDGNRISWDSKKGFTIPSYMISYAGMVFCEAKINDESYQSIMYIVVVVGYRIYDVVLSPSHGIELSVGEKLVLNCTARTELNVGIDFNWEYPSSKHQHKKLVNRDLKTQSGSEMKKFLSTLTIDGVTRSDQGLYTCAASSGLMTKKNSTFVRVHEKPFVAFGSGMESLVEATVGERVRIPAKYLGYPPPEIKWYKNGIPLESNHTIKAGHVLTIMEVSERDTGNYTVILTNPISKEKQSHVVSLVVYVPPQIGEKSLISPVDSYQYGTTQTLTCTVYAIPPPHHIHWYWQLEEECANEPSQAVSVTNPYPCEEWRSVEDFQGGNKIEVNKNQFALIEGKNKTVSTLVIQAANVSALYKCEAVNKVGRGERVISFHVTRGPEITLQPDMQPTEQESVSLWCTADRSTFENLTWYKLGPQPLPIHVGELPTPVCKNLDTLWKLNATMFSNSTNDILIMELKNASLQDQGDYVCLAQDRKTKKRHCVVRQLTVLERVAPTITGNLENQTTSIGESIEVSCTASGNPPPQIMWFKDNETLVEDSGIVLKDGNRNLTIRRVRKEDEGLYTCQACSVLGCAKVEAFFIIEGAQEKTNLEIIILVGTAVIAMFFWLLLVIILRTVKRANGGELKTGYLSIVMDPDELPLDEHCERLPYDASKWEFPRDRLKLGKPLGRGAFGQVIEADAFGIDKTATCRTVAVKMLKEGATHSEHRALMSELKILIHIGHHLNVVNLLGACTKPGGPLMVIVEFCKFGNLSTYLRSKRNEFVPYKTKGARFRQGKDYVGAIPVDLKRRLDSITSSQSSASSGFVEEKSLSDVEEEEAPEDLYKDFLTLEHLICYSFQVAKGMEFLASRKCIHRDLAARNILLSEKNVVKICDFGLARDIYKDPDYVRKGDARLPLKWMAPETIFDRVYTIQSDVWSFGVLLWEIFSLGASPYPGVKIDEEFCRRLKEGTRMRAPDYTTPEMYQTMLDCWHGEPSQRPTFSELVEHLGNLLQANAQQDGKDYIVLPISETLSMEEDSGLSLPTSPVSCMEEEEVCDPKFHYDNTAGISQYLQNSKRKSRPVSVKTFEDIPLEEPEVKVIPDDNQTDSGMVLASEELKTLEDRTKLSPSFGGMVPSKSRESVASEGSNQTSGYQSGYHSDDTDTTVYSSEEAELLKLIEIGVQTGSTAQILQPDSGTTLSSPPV

[3] = Pharmacokinetic study in mice (plasma, lung, colon); settings: salt in 30% CAPTISOL
Description: as §3, §4

[4] = remark: listed apart in the source
Excerpt: B. Filtration of the Solution
C. Preparation of a Lyophilisate

[5] = tested on: HDAC in MDA-MB-468 breast cancer cell line; test: Inhibition of HDAC in cells (Ac-H4, Ac-H3 accumulation), FIG. 2; type: cell-based; settings: MDA-MB-468, FIG. 2
[6] = tested on: EGFR in MDA-MB-468 breast cancer cell line; test: Inhibition of EGFR phosphorylation in cells, FIG. 2; type: cell-based; settings: MDA-MB-468, FIG. 2
Description: (b) An In Vitro Assay which Determines the Ability a Test Compound to Inhibit the EGF-Stimulated EGFR Phosphorylation.
Allowed A431 cell growth in a T75 flask using standard tissue culture procedures until cells reach near confluency (˜1.5×10^7) cells; D-MEM, 10% FBS). Under sterile conditions dispensed 100 μl of the cell suspension per well in 96-well microplates (x cells plated per well). Incubated cells and monitor cell density until confluency is achieved with well-to-well consistency; approximately three days. Removed complete media from plate wells by aspiration or manual displacement. Replaced media with 50 μl of pre-warmed serum free media per well and incubated 4 to 16 hours. Made two fold serial dilutions of inhibitor using pre-warmed D-MEM so that the final concentration of inhibitor range from 10 μM to […]. Removed media from A431 cell plate. Added 100 μl of serial diluted inhibitor into cells and incubate 1 to 2 hours. Removed inhibitor from plate wells by aspiration or manual displacement. Added either serum free media for resting cells (mock) or serum free media with 100 ng/ml EGF. Used 100 μl of resting/activation media per well. Allowed incubation at 37° C. for 7.5 minutes. Removed activation or stimulation media manually or by aspiration. Immediately fixed cells with 4% formaldehyde in 1×PBS. […]

[7] = tested on: HPAC pancreatic cancer cells; test: HPAC pancreatic cancer xenograft; type: in vivo, mice; settings: 120 mg/kg in 30% CAPTISOL (iv/ip) daily vs 50 mg/kg erlotinib (po); FIG. 12A
Description: as §1, §2

[8] = Pharmacokinetic study in rats (plasma); type: in vivo; settings: 20 and 60 mg/kg iv, hydrochloride salt in 30% CAPTISOL, FIG. 14
Description: Compound was administered via an intravenous (iv) infusion.
Rat: 20 mg/kg for 5 min i.v. infusion
Plasma samples were prepared by protein precipitation. An internal standard was added into plasma samples. […] The supernatant was then injected onto LC/MS/MS.
Samples were compared to standards made in plasma. These standards were prepared by serial dilution.

cancer cell lines = test: Anti-proliferative activity in various cancer cell lines (general statements, FIG. 3); type: cell-based; settings: lung, breast, prostate, colon, pancreas cell lines
Description: Cell Proliferation Assay:
Cancer cell lines were plated at 5,000 to 10,000 per well in 96-well flatted bottomed plates with various concentration of compounds. The cells were incubated with compounds for 72 hours in the presence of 0.5% of fetal bovine serum. Growth inhibition was accessed by adenosine triphosphate (ATP) content assay using Perkin Elmer ATPlite kit. ATPlite is an ATP monitoring system based on firefly luciferase. Briefly, 25 μl of mammalian cell lysis solution was added to 50 μl of phenol red-free culture medium per well to lyse the cells and stabilize the ATP. 25 μl of substrate solution was then added to the well and subsequently the luminescence was measured.

COc1cc2ncnc(Nc3ccc(F)c(Cl)c3)c2cc1SCCCCC(=O)NO [Compound 151]
IC50 (HDAC): < 0.1 µM

Tartaric Acid
IV Tissue [1]: High

C#Cc1cccc(Nc2ncnc3cc(OC)c(OCCCCCCC(=O)NOC)cc23)c1 [Compound 95, 7-(4-(3-ethynylphenylamino)-7-methoxyquinazolin-6-yloxy)-N-methoxyheptanamide]
melting point: 195.8 to 197 °C

C#Cc1cccc(Nc2ncnc3cc(OCCOC)c(OCCOC)cc23)c1 [Erlotinib, reference compound]
effect on tumor growth / tumor size (A549 NSCLC Xenograft): did not significantly affect tumor size

COc1cc2ncnc(NCc3ccccc3)c2cc1OCCCCCCC(=O)NO [Compound 85, 7-(4-(Benzylamino)-7-methoxyquinazolin-6-yloxy)-N-hydroxyheptanamide]
IC50 [2]: < 0.1 µM
IC50 (VEGFR): 1 to 10 µM

COc1cc2ncnc(Nc3ccc(F)c(Cl)c3)c2cc1SCCCCCCC(=O)NO [Compound 155]
IC50 (HDAC): < 0.1 µM

Citric Acid
IV Tissue [3]: Low

Sodium
Chemical stability in diluted solution [4]: >12 h
Dilution with D5W [4]: >10x
Solubility [4]: 7.5 mg/mL
pH ([4]; salt in 30% CAPTISOL): 10-11
IV Tissue [1]: High

COc1cc2ncnc(Nc3ccc(F)c(Cl)c3)c2cc1OCCCCCCC(=O)NO [Compound 6, 7-(4-(3-Chloro-4-fluorophenylamino)-7-methoxyquinazolin-6-yloxy)-N-hydroxyheptanamide]
activity in HDAC enzyme assay compared with SAHA (HDAC; FIG. 1): more active than erlotinib and SAHA
IC50 [2]: < 0.1 µM
activity in EFGR enzyme assay compared with erlotinib [2]: more active than erlotinib and SAHA
IC50 (VEGFR): 0.1 to 1 µM

C#Cc1cccc(Nc2ncnc3cc(OC)c(OCCCCCCC(=O)NO)cc23)c1 [Compound 12, 7-(4-(3-ethynylphenylamino)-7-methoxyquinazolin-6-yloxy)-N-hydroxyheptanamide]
activity in EFGR enzyme assay compared with erlotinib [2]: more active than erlotinib and SAHA
histone acetylation (Ac-H3/Ac-H4) compared with SAHA [5]: improvement in inhibition of histone acetylation
inhibition of EGFR phosphorylation compared with Erlotinib [6]: improvement in inhibition of histone acetylation and EGFR phosphorylation
effect on tumor growth / tumor size (A549 NSCLC Xenograft): attenuated tumor growth
attenuation of tumor growth [7]: greater attenuation of tumor growth than either erlotinib (po) or vehicle
dose proportionality of plasma concentration [8]: proportional to the dose
anti-proliferative potency compared with SAHA, Erlotinib and their combination (cancer cell lines): responded better to compound 12 than a combination of erlotinib and SAHA

COc1cc2ncnc(N[C@H](C)c3ccccc3)c2cc1OCCCCCCC(=O)NO [Compound 79, (R)—N-hydroxy-7-(7-methoxy-4-(1-phenylethylamino)quinazolin-6-yloxy)heptanamide]
IC50 (VEGFR): > 10 µM
